Reference: patent US20240269138A1, “MMP13 AS A THERAPEUTIC TARGET FOR ALLERGIC INFLAMMATORY DISEASES” (The General Hospital Corporation, priority 2021, published 2024)

What was measured:
MMP13 = MMP13 (Homo sapiens, UniProt P45452); settings: fill the S1′ pocket of MMP13 but cannot fit those of other MMPs; cited from earlier work
[1] = test system: HDM-induced allergic airway inflammation; test: HDM-induced allergic airway inflammation (mouse model of asthma), intraperitoneal inhibitor; assay type: in vivo, C57BL/6 mice; settings: for total BAL leukocyte numbers / histologically detectable changes in the lung tissue sections: 50 mg/kg intraperitoneally on days 19 and 20; for total BAL leukocyte numbers: BAL on day 21, Diff-Quik; for histologically detectable changes in the lung tissue sections: lungs on day 21, H&E and PAS; for effectiveness compared with dexamethasone: inhibitor 50 mg/kg vs dexamethasone 1 mg/kg, intraperitoneally, days 19 and 20; for inflammation in a mouse model of asthma (overall): systemic (intraperitoneal) administration
Experimental: C57BL/6 mice were subjected to intranasal instillation of control PBS or HDM as in FIGS. 5A-5D. Vehicle (DMSO), dexamethasone (1 mg/kg), and the MMP13 inhibitors CL82198 (MMP13i Inh1; 50 mg/kg) and DB04760 (CAS 544678-85-5; MMP13i Inh2; 50 mg/kg) were administered intraperitoneally (n=3, 3, 4, and 2 per group, respectively) on days 19 and 20. BAL and lungs of PBS- and HDM-challenged mice were prepared for analysis as in FIGS. 5A-5D. (FIG. 6A and FIG. 6B) BAL cells were analyzed by Diff-Quik staining (FIG. 6A). The numbers of total BAL cells and the indicated types of BAL cells were determined from Diff-Quik-stained cell images and are shown as means±SEM (FIG. 6B). *, P<0.05 (two-tailed unpaired Student's t test). (FIG. 6C and FIG. 6D) Lung sections were analyzed by H&E staining (FIG. 6C) and PAS staining (FIG. 6D). Mice were subjected to intranasal instillation of HDM (D. farinae) extract (XPB81D3A25; Stallergenes Greer) in phosphate-buffered saline (PBS) on days 0, 2, 5, 7, 9, 12, 14, 16 and 19. The amounts of HDM extract administered range between 1 μg and 10 μg per animal; the administered amount for each batch was determined by seeking a condition for BAL eosinophils of 2-5×10^5 cells. PBS was instilled as a control. Dexamethasone and MMP13 inhibitors were injected intraperitoneally (1 mg/kg and 50 mg/kg, respectively) on days 19 and 20. BAL and lungs of PBS- and HDM-challenged mice were prepared on day 21 for analysis. Mouse skin and lung tissues were fixed with formalin and embedded in paraffin. Tissue sections were analyzed by hematoxylin and eosin (H&E) and Periodic acid-Schiff (PAS) staining or by immunofluorescence analysis using primary antibodies in conjunction with Alexa Fluor 594- or fluorescein isothiocyanate-conjugated secondary antibodies (Thermo Fisher Scientific) and Hoechst 33342 (Sigma). Primary antibodies specific to the following antigens were used in immunofluorescence analysis after 1:100 to 1:200 dilution: CD3 (SP7; Abcam), MBP (2000-124; Mayo Clinic), and MMP13 (ab39012; Abcam). Cytospins of BAL cells were analyzed by Diff-Quik staining. Data values are expressed as means±SEM. P values were obtained with the unpaired two-tailed Student t test with Welch's correction.

[2] = test system: OVA-induced allergic dermatitis; test: OVA-induced allergic dermatitis (mouse model of atopic dermatitis), topical inhibitor; assay type: in vivo, C57BL/6 mice; settings: for inflammation in a mouse model of atopic dermatitis (overall): topical administration; for OVA-induced dermal thickening (edema formation) / OVA-induced epidermal thickening / OVA-induced T cell infiltration (CD3+ T cell density) / OVA-induced eosinophil infiltration (MBP+ eosinophil density): topical, 125 μl of 50 mM solution per cm^2 concurrently with OVA challenge, skin on day 21; for OVA-induced dermal thickening (edema formation) / OVA-induced epidermal thickening: H&E; for OVA-induced T cell infiltration (CD3+ T cell density) / OVA-induced eosinophil infiltration (MBP+ eosinophil density): immunostaining
Experimental: C57BL/6 mice were sensitized to OVA and challenged with control SAL or OVA as in FIGS. 1A-1G. Vehicle (water), the p38α inhibitor SCIO469 (p38αi), and the MMP13 inhibitor DB04760 (CAS 544678-85-5; MMP13i) were administered topically to the challenged skin site (125 μl of 50 mM solution per cm^2; n=10 per group) concurrently with SAL or OVA. SAL- and OVA-challenged skin was prepared for analysis as in FIGS. 1A-1G. (FIGS. 4A-4C) Skin sections were analyzed by H&E staining (FIG. 4A). Epidermal and dermal thickness (FIG. 4B and FIG. 4C, respectively) was determined from H&E-stained skin images and are shown as means±SEM. *, P<0.05; **, P<0.01 (two-tailed unpaired Student's t test). (FIGS. 4D-4G) Skin sections were analyzed by immunostaining/counterstaining for the indicated molecules (FIG. 4D and FIG. 4F). Solid and dotted line, epidermal margins and the epidermal-dermal boundary, respectively. CD3^+ T cell and MBP^+ eosinophil density (FIG. 4E and FIG. 4G, respectively) was determined on the basis of fluorescence signal-bearing cell numbers per image field and is shown as means SEM. **, P<0.01; ***, P<0.001 (two-tailed unpaired Student's t test). For allergen sensitization, OVA (Sigma) and alum adjuvant (Imject; Thermo Fisher Scientific) were combined in saline (0.9% sodium chloride; SAL) to constitute an inoculum (1 mg/ml and 100 mg/ml, respectively) and injected intraperitoneally into mice (200 μl per animal) on day 0 and 7. To elicit dermatitis in OVA-sensitized mice, shaved dorsal skin was subjected to 15 strokes of tape stripping (Tegaderm; 3M) and then challenged with OVA on days 14, 16 and 19. For this epicutaneous challenge, 100 μl of OVA (1 mg/ml in SAL) was applied to cotton gauze (1 cm×1 cm) placed on tape-stripped skin; 100 μl of SAL was applied as a control. For topical administration of p38α and MMP13 inhibitors, 125 μl of inhibitor solution (50 mM) was applied to skin sites concurrently with SAL or OVA. Challenged skin was sampled on day 21 for analysis. Mouse skin and lung tissues were fixed with formalin and embedded in paraffin. Tissue sections were analyzed by hematoxylin and eosin (H&E) and Periodic acid-Schiff (PAS) staining or by immunofluorescence analysis using primary antibodies in conjunction with Alexa Fluor 594- or fluorescein isothiocyanate-conjugated secondary antibodies (Thermo Fisher Scientific) and Hoechst 33342 (Sigma). Primary antibodies specific to the following antigens were used in immunofluorescence analysis after 1:100 to 1:200 dilution: CD3 (SP7; Abcam), MBP (2000-124; Mayo Clinic), and MMP13 (ab39012; Abcam). Cytospins of BAL cells were analyzed by Diff-Quik staining. Data values are expressed as means±SEM. P values were obtained with the unpaired two-tailed Student t test with Welch's correction.

Row | Compound | selectivity for MMP13 over other MMPs (MMP13) | total BAL leukocyte numbers [1] | histologically detectable changes in the lung tissue sections [1] | effectiveness compared with dexamethasone [1] | inflammation in a mouse model of asthma (overall) [1] | inflammation in a mouse model of atopic dermatitis (overall) [2] | OVA-induced dermal thickening (edema formation) [2] | OVA-induced epidermal thickening [2] | OVA-induced T cell infiltration (CD3+ T cell density) [2] | OVA-induced eosinophil infiltration (MBP+ eosinophil density) [2]
1 | O=C(NCCCCN1CCOCC1)c1cc2ccccc2o1 [CL82198] | almost exclusively selective for MMP13 | substantially reduced | prevented | superior to that of dexamethasone | suppresses inflammation | – | – | – | – | –
2 | Cc1cc(CNC(=O)c2cc(C(=O)NCc3ccc(F)c(C)c3)ncn2)ccc1F [DB04760] | – | substantially reduced | prevented | superior to that of dexamethasone | suppresses inflammation | suppresses inflammation | trend of decrease | significantly reduced | significantly reduced | trend of decrease
3 | C[C@@H]1CN(Cc2ccc(F)cc2)[C@@H](C)CN1C(=O)c1cc2c(C(=O)C(=O)N(C)C)cn(C)c2cc1Cl [SCIO469] | – | – | – | – | – | suppresses inflammation | significant decrease | significant decrease | significant decrease | significant decrease
